Measured values from ChEMBL document CHEMBL5137082, “Discovery of a Novel Vascular Disrupting Agent Inhibiting Tubulin Polymerization and HDACs with Potent Antitumor Effects” (J Med Chem, 2022).
Values belong to the compound of their own block, whether it stands above or below them. Active and inactive are the calls of the source. The calls are words filed in the database; no cut-off is given here.

What was measured:
[1] = tested on: K562; experiment: cells; assay type: functional, cell-based; conditions: Homo sapiens, K562, 72 h
Description: Antiproliferative activity against human K562 cells assessed as inhibition of cell growth measured after 72 hrs by MTT assay

[2] = tested on: H22; experiment: Antiproliferative activity against mouse H22 cells assessed as inhibition of cell growth measured after 72 hrs by MTT assay; assay type: functional, cell-based; conditions: H22, 72 h
[3] = tested on: MCF7; experiment: Antiproliferative activity against human MCF7 cells assessed as inhibition of cell growth measured after 72 hrs by MTT assay; assay type: functional, cell-based; conditions: MCF7, 72 h
[4] = tested on: HCT-116; experiment: Antiproliferative activity against human HCT-116 cells assessed as inhibition of cell growth measured after 72 hrs by MTT assay; assay type: functional, cell-based; conditions: HCT-116, 72 h
[5] = Antiproliferative activity against human HFL1 cells assessed as inhibition of cell growth measured after 72 hrs by MTT assay; assay type: toxicity, cell-based
[6] = tested on: MDA-MB-231; experiment: Antiproliferative activity against human MDA-MB-231 cells assessed as inhibition of cell growth measured after 72 hrs by MTT assay; assay type: functional, cell-based; conditions: MDA-MB-231, 72 h
[7] = tested on: HepG2; experiment: Antiproliferative activity against human HepG2 cells assessed as inhibition of cell growth measured after 72 hrs by MTT assay; assay type: functional, cell-based; conditions: HepG2, 72 h
[8] = tested on: HUVEC; experiment: Antivascular activity against HUVEC cells assessed as inhibition of capillary-like tubule formation at 30 nM measured after 6 hrs by inverted microscopy; assay type: functional, cell-based; conditions: Homo sapiens
[9] = tested on: H22; experiment: Antivascular activity against mouse H22 cells allografted in ICR mouse assessed as inhibition of blood vessel formation at 20 mg/kg, iv administered qd measured after 21 days by immunohistochemistry analysis; assay type: functional, organism-based; conditions: time 21.0 day
[10] = tested on: H22; experiment: Antivascular activity against mouse H22 cells allografted in ICR mouse assessed as reduction in tumor microvessel density by measuring CD31-positive cells at 20 mg/kg, iv administered qd measured after 21 days by immunohistochemistry analysis; assay type: functional, organism-based; conditions: time 21.0 day
[11] = tested on: H22; experiment: Antitumor activity against mouse H22 cells allografted in ICR mouse assessed as reduction in tumor weight at 20 mg/kg, iv administered qd measured after 21 days; assay type: functional; design: scale not given: the % may be the effect or the level left; conditions: time 21 day
[12] = molecular target: Histone deacetylase 2 (Homo sapiens, UniProt Q92769); experiment: Inhibition of HDAC2 in human HeLa cells using BOC-K(Ac)-AMC as substrate measured after 30 mins by fluorescence based microtiter plate reader assay; assay type: cell-based
Chain of Histone deacetylase 2 (Q92769 whole entry): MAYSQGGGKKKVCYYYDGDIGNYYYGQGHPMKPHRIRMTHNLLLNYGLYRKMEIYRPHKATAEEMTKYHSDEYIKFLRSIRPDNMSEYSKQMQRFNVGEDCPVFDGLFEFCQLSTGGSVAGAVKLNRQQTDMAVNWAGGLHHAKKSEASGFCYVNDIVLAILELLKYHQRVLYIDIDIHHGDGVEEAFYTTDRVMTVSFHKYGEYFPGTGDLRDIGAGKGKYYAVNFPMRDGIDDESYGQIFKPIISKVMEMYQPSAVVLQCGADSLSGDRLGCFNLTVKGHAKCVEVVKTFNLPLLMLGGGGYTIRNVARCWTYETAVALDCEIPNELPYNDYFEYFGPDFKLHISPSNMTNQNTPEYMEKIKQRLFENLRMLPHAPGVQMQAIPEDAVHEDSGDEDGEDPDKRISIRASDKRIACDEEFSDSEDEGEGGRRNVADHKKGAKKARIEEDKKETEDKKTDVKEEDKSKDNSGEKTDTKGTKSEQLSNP

[13] = molecular target: Histone deacetylase 3 (Homo sapiens, UniProt O15379); experiment: Inhibition of HDAC3 in human HeLa cells using BOC-K(Ac)-AMC as substrate measured after 30 mins by fluorescence based microtiter plate reader assay; assay type: cell-based
Chain of Histone deacetylase 3 (O15379 whole entry): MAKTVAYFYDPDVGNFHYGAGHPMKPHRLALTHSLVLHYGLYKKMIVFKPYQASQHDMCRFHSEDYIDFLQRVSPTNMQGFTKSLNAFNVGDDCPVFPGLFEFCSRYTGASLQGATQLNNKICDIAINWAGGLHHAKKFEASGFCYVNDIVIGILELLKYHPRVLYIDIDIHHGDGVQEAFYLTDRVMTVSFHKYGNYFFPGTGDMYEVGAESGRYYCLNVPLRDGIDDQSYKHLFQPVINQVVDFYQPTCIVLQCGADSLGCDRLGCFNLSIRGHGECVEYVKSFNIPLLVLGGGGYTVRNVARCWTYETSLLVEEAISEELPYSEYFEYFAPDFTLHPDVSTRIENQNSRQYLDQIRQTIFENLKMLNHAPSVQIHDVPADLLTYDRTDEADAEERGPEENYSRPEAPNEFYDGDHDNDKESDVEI

[14] = molecular target: Histone deacetylase 1 (Homo sapiens, UniProt Q13547); experiment: Inhibition of HDAC1 in human HeLa cells using BOC-K(Ac)-AMC as substrate measured after 30 mins by fluorescence based microtiter plate reader assay; assay type: cell-based
Chain of Histone deacetylase 1 (Q13547 whole entry): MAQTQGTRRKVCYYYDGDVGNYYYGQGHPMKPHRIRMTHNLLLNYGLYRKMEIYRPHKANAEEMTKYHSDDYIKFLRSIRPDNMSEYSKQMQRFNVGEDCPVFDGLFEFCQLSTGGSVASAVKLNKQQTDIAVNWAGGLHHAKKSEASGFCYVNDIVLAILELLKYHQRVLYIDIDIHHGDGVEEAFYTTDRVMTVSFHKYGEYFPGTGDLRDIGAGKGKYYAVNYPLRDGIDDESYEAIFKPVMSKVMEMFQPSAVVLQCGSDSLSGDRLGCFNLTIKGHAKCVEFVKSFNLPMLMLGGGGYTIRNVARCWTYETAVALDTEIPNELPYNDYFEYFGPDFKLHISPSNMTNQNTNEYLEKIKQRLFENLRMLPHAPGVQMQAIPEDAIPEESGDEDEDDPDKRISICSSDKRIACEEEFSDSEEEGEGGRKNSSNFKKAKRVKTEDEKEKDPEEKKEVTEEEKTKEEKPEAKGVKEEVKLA

[15] = molecular target: T1, Histone deacetylase 8 (Homo sapiens, UniProt Q9BY41); experiment: Inhibition of HDAC8 in human HeLa cells using BOC-K(Ac)-AMC as substrate measured after 30 mins by fluorescence based microtiter plate reader assay; assay type: cell-based
T1 sequence (Q9BY41 whole entry): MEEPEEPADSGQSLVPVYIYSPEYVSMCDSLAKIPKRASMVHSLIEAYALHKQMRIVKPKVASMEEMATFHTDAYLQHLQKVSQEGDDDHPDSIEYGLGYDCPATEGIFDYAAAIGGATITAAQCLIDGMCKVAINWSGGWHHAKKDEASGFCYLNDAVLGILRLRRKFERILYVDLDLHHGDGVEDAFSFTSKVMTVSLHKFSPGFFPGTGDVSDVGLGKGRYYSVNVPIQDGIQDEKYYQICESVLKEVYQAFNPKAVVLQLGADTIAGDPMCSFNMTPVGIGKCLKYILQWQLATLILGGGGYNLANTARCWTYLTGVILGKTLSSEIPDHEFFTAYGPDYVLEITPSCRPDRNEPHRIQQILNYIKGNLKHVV

[16] = molecular target: T2, Protein deacetylase HDAC6 (Homo sapiens, UniProt Q9UBN7); experiment: Inhibition of HDAC6 in human HeLa cells using BOC-K(Ac)-AMC as substrate measured after 30 mins by fluorescence based microtiter plate reader assay; assay type: cell-based
T2 sequence (Q9UBN7 whole entry): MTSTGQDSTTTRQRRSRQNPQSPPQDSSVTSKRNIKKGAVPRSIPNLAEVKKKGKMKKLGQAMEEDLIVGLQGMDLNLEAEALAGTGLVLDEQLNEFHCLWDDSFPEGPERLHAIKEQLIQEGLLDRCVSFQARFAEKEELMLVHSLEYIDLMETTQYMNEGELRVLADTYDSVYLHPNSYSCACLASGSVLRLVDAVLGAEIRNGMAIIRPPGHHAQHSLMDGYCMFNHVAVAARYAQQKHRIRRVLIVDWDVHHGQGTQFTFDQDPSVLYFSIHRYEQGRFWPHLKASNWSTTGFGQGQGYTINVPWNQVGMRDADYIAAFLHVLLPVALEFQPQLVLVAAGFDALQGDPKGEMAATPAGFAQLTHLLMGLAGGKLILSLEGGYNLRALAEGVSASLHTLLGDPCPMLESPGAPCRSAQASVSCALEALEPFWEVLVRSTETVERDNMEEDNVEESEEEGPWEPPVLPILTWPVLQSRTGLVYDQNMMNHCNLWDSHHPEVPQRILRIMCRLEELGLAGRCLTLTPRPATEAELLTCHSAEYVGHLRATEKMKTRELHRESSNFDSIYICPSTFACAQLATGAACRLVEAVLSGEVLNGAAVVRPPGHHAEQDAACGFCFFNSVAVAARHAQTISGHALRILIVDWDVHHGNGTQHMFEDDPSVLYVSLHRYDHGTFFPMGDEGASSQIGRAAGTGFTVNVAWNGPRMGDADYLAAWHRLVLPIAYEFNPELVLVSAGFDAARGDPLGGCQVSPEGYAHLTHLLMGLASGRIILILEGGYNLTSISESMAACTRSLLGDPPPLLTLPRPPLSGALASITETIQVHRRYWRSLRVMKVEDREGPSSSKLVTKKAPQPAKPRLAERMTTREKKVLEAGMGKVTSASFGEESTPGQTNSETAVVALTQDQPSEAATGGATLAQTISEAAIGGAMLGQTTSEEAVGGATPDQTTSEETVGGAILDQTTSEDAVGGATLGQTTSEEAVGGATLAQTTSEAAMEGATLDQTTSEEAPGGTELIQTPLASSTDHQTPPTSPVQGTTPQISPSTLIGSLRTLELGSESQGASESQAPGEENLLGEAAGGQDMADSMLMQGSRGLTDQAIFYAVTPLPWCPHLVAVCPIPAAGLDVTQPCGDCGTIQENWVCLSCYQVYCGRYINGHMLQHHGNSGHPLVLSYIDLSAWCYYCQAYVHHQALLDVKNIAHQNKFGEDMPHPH

[17] = tested on: H22; experiment: Antitumor activity against mouse H22 cells allografted in ICR mouse assessed as reduction in tumor weight at 25 mg/kg, ip administered qd measured after 21 days; assay type: functional; design: scale not given: the % may be the effect or the level left; conditions: time 21 day

IC50 [1]: 1040 nM
Compound: COc1ccc(CNC(=O)c2cc(F)ccc2N2CCOCC2)cc1OCCCC(=O)NO

IC50 [1]: 1970 nM
Compound: COc1cc(CNC(=O)c2cc(F)ccc2N2CCOCC2)ccc1/C=C/C(=O)NO

IC50 [1]: 354 nM
Compound: COc1ccc(CNC(=O)c2cc(F)ccc2N2CCOCC2)cc1C#CCCC(=O)NO

IC50 [1]: 61 nM
IC50 [12]: 6720 nM
IC50 [13]: 3250 nM
IC50 [14]: 8860 nM
IC50 [15]: 16500 nM
IC50 [16]: 2420 nM
IC50 [3]: 124 nM
IC50 [4]: 105 nM
IC50 [6]: 104 nM
IC50 [7]: 114 nM
Compound: COc1ccc(CNC(=O)c2cc(F)ccc2N2CCOCC2)cc1OCC(=O)NO
IC50 [2]: 95 nM
IC50 at 72 h [5]: 495 nM

IC50 [1]: 2000 nM
Compound: COc1ccc(CNC(=O)c2cc(F)ccc2N2CCOCC2)c(/C=C/C(=O)NO)c1

IC50 [1]: 1030 nM
Compound: COc1ccc(CNC(=O)c2cc(F)ccc2N2CCOCC2)cc1C(=O)NO

IC50 [1]: 1660 nM
Compound: COc1cc(/C=C/C(=O)NO)ccc1CNC(=O)c1cc(F)ccc1N1CCOCC1

IC50 [1]: 1500 nM
Compound: COc1ccc(CNC(=O)c2cc(F)ccc2N2CCOCC2)cc1OCCCCCCC(=O)NO

IC50 [1]: 1060 nM
Compound: COc1ccc(CNC(=O)c2cc(F)ccc2N2CCOCC2)c(CCC(=O)NO)c1

IC50 [1]: > 2000 nM
Compound: COc1ccc(CNC(=O)c2cc(F)ccc2N2CCOCC2)cc1CCC(=O)NO

IC50 [1]: > 2000 nM
Compound: COc1cc(CCC(=O)NO)ccc1CNC(=O)c1cc(F)ccc1N1CCOCC1

IC50 [1]: > 2000 nM
Compound: COc1cc(CNC(=O)c2cc(F)ccc2N2CCOCC2)ccc1CCC(=O)NO

IC50 [1]: 921 nM
Compound: COc1ccc(CNC(=O)c2cc(F)ccc2N2CCOCC2)cc1C#CCCCCC(=O)NO

The next lines start with the compound.

Compound: O=C(/C=C/c1cc(CNC(=O)c2cc(F)ccc2N2CCOCC2)ccc1O)NO
IC50 [2]: 733 nM
IC50 [1]: 285 nM
IC50 [3]: 775 nM
IC50 [4]: 823 nM
IC50 at 72 h [5]: 3260 nM
IC50 [6]: 642 nM
IC50 [7]: 700 nM

Compound: COc1ccc(CNC(=O)c2cc(F)ccc2N2CCOCC2)cc1O
IC50 [2]: 29 nM
IC50 [1]: 17 nM
Activity [8]: Active
Activity [9]: Active
IC50 [3]: 32 nM
IC50 [4]: 29 nM
IC50 at 72 h [5]: 126 nM
Activity [10]: Active
IC50 [6]: 26 nM
Activity [11]: 74%
IC50 [7]: 27 nM

Compound: COc1ccc(CNC(=O)c2cc(F)ccc2N2CCOCC2)cc1C(=O)Nc1ccccc1N
IC50 [1]: > 2000 nM

Compound: COc1ccc(CNC(=O)c2cc(OCCCC(=O)NO)ccc2N2CCOCC2)cc1O
IC50 [1]: > 2000 nM

Compound: COc1ccc(CNC(=O)c2cc(C(=O)Nc3ccccc3N)ccc2N2CCOCC2)cc1O
IC50 [2]: 96 nM
IC50 [1]: 114 nM
IC50 [12]: 28000 nM
IC50 [13]: 530 nM
IC50 [14]: 16500 nM
IC50 [15]: 2240 nM
IC50 [16]: 668 nM
IC50 [3]: 105 nM
IC50 [4]: 77 nM
IC50 at 72 h [5]: 323 nM
IC50 [6]: 101 nM
IC50 [7]: 97 nM

Compound: O=C(CCCCCCC(=O)Nc1ccccc1)NO [VORINOSTAT]
Activity [17]: 61%

Compound: O=C(/C=C/c1cccc(CNC(=O)c2cc(F)ccc2N2CCOCC2)c1)NO
IC50 [1]: 664 nM

Compound: COc1ccc(CNC(=O)c2cc(C#CCCCCC(=O)NO)ccc2N2CCOCC2)cc1O
IC50 [1]: > 2000 nM

Compound: COc1ccc(CNC(=O)c2cc(OCCCCCCC(=O)NO)ccc2N2CCOCC2)cc1O
IC50 [1]: > 2000 nM

Compound: COc1ccc(CNC(=O)c2cc(OCC(=O)NO)ccc2N2CCOCC2)cc1O
IC50 [1]: > 2000 nM

Compound: COc1ccc(CNC(=O)c2cc(/C=C/C(=O)NO)ccc2N2CCOCC2)cc1O
IC50 [1]: > 2000 nM

Compound: COc1ccc(CNC(=O)c2cc(C#CCCC(=O)NO)ccc2N2CCOCC2)cc1O
IC50 [1]: > 2000 nM

Compound: COc1ccc(CNC(=O)c2cc(C(=O)NO)ccc2N2CCOCC2)cc1O
IC50 [1]: > 2000 nM
